Experimental data taken from ChEMBL document CHEMBL4052645, “Discovery of potent and efficacious pyrrolopyridazines as dual JAK1/3 inhibitors” (Bioorg Med Chem Lett, 2017).
pIC50: −log10 of the molar value.

Columns and labels:
[1] = target: T1, Tyrosine-protein kinase JAK3 (Homo sapiens, UniProt P52333); assay: Inhibition of JAK3 (unknown origin) using CSKtide as substrate after 30 mins in presence of [gamma33P]ATP by liquid scintillation counting method
T1 sequence (P52333 whole entry): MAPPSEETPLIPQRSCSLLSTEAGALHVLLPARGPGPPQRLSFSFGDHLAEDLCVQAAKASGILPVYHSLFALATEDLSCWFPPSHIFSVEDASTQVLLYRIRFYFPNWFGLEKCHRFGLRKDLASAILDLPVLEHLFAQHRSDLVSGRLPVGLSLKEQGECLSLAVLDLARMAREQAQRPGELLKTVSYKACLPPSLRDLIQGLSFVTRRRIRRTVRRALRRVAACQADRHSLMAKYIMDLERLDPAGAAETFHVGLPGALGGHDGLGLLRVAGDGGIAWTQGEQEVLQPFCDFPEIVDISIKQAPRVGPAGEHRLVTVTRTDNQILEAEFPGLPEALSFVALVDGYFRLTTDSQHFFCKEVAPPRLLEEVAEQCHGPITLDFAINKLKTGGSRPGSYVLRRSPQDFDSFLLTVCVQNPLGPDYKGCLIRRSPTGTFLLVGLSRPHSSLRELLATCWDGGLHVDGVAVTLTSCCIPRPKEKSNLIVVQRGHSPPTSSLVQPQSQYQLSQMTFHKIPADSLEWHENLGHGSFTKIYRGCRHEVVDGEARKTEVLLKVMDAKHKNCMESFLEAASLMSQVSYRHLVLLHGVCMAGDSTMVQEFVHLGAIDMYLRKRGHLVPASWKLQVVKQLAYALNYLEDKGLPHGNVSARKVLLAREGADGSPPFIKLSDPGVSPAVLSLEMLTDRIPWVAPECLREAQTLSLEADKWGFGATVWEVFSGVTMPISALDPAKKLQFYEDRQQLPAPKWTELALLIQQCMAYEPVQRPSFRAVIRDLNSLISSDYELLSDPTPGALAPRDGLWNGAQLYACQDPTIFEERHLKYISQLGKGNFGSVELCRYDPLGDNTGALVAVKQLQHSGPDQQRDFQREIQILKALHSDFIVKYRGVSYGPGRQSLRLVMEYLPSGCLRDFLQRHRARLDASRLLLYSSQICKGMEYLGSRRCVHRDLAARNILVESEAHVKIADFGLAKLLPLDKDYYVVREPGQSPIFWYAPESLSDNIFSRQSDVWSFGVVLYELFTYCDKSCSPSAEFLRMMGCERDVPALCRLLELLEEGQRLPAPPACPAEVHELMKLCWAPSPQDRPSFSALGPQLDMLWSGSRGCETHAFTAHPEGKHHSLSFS

[2] = target: Tyrosine-protein kinase JAK2 (Homo sapiens, UniProt O60674); assay: Inhibition of GST-tagged JAK2 (unknown origin) after 3 hrs by Caliper assay
[3] = target: Rho-associated protein kinase 1 (Homo sapiens, UniProt Q13464); assay: Inhibition of human ROCK1 (M1 to R415 residues) expressed in mammalian expression system assessed as residual activity at 50 nM by KINOMEscan assay relative to control
[4] = target: STE20-like serine/threonine-protein kinase (Homo sapiens) (UniProt Q9H2G2); assay: Inhibition of wild-type human partial length SLK (S14 to A307 residues) expressed in bacterial expression system assessed as residual activity at 50 nM by Kinomescan method relative to control
[5] = target: Serine/threonine-protein kinase ICK (Homo sapiens) (UniProt Q9UPZ9); assay: Inhibition of wild-type human partial length ICK (M1 to P314 residues) expressed in mammalian expression system assessed as residual activity at 50 nM by Kinomescan method relative to control
Serine/threonine-protein kinase ICK (Homo sapiens), sequence (Q9UPZ9 whole entry, the tested form may be a part): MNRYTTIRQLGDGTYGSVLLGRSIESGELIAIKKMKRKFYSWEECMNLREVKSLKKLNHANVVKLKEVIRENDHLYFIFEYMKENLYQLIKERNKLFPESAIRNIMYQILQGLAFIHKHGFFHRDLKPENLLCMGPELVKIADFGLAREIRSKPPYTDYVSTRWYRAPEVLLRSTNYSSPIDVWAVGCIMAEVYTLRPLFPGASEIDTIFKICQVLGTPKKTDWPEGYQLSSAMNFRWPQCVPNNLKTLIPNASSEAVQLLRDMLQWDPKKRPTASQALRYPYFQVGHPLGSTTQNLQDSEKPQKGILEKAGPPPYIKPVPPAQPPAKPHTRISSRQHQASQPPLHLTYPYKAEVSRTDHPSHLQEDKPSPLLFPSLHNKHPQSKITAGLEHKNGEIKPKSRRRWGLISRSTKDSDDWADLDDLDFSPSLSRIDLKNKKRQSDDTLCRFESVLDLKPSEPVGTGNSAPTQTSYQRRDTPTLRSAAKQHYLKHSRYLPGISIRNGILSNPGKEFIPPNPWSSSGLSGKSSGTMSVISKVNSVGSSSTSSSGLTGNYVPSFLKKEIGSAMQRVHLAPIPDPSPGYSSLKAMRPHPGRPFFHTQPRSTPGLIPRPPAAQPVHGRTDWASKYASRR

[6] = target: Tyrosine-protein kinase Srms (Homo sapiens) (UniProt Q9H3Y6); assay: Inhibition of wild-type human partial length SRMS (L208 to P488 residues) expressed in mammalian expression system assessed as residual activity at 50 nM by Kinomescan method relative to control
[7] = target: Calcium/calmodulin-dependent protein kinase type II subunit beta (Homo sapiens) (UniProt Q13554); assay: Inhibition of wild-type human partial length CAMK2B (M1 to Q380 residues) expressed in bacterial expression system assessed as residual activity at 50 nM by Kinomescan method relative to control
Calcium/calmodulin-dependent protein kinase type II subunit beta (Homo sapiens), sequence (Q13554 whole entry, the tested form may be a part): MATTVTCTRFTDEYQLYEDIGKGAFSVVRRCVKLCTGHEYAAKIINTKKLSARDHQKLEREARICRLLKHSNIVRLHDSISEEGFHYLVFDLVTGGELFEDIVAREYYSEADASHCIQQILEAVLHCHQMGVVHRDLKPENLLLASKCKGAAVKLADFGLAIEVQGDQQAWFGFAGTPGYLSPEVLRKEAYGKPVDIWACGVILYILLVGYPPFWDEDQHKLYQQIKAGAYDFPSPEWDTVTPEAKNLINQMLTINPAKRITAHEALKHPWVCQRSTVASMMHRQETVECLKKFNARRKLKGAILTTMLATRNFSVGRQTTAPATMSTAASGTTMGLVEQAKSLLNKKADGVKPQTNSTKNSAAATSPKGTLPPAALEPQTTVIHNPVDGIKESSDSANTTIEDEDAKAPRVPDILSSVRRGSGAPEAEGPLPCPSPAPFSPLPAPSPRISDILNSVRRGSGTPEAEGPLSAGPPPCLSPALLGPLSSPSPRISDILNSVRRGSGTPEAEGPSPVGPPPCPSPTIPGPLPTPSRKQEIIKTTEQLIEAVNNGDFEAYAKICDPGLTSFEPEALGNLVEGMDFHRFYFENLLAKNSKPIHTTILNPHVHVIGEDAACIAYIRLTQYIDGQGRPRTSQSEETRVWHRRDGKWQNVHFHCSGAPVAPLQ

[8] = target: Serine/threonine-protein kinase Nek3 (Homo sapiens) (UniProt P51956); assay: Inhibition of wild-type human full length NEK3 (M1 to R506 residues) expressed in mammalian expression system assessed as residual activity at 50 nM by Kinomescan method relative to control
Serine/threonine-protein kinase Nek3 (Homo sapiens), sequence (P51956 whole entry, the tested form may be a part): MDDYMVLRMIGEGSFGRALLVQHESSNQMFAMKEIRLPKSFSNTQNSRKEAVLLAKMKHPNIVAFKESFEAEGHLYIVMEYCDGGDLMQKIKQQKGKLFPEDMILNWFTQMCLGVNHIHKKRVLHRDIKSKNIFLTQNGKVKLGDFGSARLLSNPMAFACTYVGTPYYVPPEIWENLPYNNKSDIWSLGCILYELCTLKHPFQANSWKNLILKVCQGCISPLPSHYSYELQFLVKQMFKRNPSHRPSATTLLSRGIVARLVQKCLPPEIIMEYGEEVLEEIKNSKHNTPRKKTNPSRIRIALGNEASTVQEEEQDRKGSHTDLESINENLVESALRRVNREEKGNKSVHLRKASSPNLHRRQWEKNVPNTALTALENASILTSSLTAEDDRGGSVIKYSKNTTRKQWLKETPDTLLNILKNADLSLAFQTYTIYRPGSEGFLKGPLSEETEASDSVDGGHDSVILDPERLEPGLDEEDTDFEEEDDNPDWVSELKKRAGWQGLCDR

[9] = target: Tyrosine-protein kinase Yes (Homo sapiens) (UniProt P07947); assay: Inhibition of wild-type human partial length YES (T257 to L543 residues) expressed in bacterial expression system assessed as residual activity at 50 nM by Kinomescan method relative to control
Tyrosine-protein kinase Yes (Homo sapiens), sequence (P07947 2-543 limits assumed): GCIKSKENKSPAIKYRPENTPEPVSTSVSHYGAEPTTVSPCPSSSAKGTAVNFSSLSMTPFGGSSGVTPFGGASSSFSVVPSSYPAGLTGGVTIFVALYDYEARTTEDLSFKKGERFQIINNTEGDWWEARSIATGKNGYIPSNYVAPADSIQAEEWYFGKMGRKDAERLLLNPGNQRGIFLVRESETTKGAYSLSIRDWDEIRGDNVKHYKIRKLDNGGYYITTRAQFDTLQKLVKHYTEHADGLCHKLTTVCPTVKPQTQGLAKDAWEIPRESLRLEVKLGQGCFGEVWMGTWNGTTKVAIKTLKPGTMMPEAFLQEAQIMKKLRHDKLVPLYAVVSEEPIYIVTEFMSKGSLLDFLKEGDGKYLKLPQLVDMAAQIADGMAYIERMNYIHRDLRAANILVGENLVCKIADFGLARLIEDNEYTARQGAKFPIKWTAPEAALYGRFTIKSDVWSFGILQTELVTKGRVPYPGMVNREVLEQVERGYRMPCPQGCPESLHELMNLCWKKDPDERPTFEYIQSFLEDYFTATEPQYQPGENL

[10] = target: Casein kinase I isoform epsilon (Homo sapiens) (UniProt P49674); assay: Inhibition of wild-type human full length CK1E (M1 to K416 residues) expressed in bacterial expression system assessed as residual activity at 50 nM by Kinomescan method relative to control
Casein kinase I isoform epsilon (Homo sapiens), sequence (P49674 whole entry, looked up, the tested form may be a part, canonical isoform): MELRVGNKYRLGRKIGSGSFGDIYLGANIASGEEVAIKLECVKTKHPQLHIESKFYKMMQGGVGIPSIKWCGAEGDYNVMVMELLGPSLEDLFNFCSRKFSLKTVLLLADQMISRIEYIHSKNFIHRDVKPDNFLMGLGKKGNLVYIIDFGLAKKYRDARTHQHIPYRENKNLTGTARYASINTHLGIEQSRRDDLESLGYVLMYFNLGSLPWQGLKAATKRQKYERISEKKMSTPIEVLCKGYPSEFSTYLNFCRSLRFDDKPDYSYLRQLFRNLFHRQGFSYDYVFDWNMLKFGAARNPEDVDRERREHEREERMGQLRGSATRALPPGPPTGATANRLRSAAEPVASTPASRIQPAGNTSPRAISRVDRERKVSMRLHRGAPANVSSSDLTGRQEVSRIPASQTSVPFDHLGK

[11] = target: Receptor-interacting serine/threonine-protein kinase 1 (Homo sapiens) (UniProt Q13546); assay: Inhibition of wild-type human partial length RIPK1 (M1 to K305 residues) expressed in bacterial expression system assessed as residual activity at 50 nM by Kinomescan method relative to control
[12] = target: Serine/threonine-protein kinase MARK1 (Homo sapiens) (UniProt Q9P0L2); assay: Inhibition of wild-type human partial length MARK1 (Q30 to T341 residues) expressed in bacterial expression system assessed as residual activity at 50 nM by Kinomescan method relative to control
Serine/threonine-protein kinase MARK1 (Homo sapiens), sequence (Q9P0L2 whole entry, looked up, the tested form may be a part): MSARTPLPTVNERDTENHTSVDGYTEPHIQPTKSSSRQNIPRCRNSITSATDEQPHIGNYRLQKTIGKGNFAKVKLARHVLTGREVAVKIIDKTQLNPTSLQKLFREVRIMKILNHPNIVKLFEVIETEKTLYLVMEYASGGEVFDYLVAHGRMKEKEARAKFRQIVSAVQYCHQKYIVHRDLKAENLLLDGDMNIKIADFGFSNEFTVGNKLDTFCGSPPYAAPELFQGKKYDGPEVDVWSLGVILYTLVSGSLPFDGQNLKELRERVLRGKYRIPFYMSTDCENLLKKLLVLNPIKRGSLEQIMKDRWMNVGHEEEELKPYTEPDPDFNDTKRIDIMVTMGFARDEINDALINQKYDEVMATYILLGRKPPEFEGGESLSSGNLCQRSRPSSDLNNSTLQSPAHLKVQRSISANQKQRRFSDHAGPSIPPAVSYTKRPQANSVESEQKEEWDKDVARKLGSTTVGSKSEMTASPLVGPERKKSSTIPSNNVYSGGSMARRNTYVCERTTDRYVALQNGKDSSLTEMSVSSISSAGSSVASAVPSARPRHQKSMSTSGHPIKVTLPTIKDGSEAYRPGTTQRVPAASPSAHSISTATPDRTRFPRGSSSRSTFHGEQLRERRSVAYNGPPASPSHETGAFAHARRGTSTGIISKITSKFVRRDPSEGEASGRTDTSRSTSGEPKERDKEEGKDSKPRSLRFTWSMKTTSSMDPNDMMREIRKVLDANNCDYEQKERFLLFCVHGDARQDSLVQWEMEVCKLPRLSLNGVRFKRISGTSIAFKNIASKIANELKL

[13] = target: Discoidin domain-containing receptor 2 (Homo sapiens) (UniProt Q16832); assay: Inhibition of wild-type human partial length DDR2 (V555 to E855 residues) expressed in mammalian expression system assessed as residual activity at 50 nM by Kinomescan method relative to control
[14] = target: Serine/threonine-protein kinase 17B (Homo sapiens) (UniProt O94768); assay: Inhibition of wild-type human full length DRAK2 (M1 to C372 residues) expressed in bacterial expression system assessed as residual activity at 50 nM by Kinomescan method relative to control
[15] = target: Tyrosine-protein kinase Fes/Fps (Homo sapiens) (UniProt P07332); assay: Inhibition of wild-type human partial length FES (I527 to R822 residues) expressed in bacterial expression system assessed as residual activity at 50 nM by Kinomescan method relative to control
[16] = target: Myosin-IIIb (Homo sapiens) (UniProt Q8WXR4); assay: Inhibition of wild-type human partial length MYO3B (M1 to D357 residues) expressed in bacterial expression system assessed as residual activity at 50 nM by Kinomescan method relative to control
Myosin-IIIb (Homo sapiens), sequence (Q8WXR4 whole entry, the tested form may be a part): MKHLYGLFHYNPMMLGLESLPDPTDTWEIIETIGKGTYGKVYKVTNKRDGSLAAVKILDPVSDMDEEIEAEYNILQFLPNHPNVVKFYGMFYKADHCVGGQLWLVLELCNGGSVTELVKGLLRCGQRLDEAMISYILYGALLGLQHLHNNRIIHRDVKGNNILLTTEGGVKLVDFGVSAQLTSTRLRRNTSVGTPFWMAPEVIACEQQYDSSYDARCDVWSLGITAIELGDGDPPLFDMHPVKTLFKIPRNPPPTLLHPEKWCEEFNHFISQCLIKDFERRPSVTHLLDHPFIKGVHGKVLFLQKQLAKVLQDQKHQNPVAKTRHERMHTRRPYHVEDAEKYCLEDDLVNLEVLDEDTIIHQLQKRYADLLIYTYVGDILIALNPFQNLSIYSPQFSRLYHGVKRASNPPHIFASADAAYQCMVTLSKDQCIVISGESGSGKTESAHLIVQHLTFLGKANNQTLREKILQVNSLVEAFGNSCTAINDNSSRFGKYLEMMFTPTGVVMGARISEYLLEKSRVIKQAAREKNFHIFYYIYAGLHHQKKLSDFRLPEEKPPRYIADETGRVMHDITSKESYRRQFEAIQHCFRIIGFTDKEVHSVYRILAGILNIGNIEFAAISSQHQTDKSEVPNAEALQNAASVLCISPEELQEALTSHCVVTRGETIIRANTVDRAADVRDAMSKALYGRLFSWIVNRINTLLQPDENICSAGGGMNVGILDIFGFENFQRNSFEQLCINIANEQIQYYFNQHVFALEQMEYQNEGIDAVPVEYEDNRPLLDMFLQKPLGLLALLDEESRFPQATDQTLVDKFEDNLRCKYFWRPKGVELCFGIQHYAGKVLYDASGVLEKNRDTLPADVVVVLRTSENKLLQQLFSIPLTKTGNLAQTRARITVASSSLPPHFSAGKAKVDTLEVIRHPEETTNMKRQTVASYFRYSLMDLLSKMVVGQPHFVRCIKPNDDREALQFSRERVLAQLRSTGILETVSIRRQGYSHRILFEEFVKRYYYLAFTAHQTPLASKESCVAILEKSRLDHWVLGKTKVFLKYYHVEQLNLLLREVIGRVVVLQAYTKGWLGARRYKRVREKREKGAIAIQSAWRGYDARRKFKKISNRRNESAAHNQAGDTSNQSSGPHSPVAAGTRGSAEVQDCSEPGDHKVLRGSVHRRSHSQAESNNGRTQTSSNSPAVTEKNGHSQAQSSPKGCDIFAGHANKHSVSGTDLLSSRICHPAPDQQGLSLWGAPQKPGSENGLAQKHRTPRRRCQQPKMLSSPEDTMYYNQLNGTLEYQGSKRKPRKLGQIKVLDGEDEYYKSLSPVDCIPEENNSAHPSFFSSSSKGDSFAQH

[17] = target: Dual specificity testis-specific protein kinase 1 (Homo sapiens) (UniProt Q15569); assay: Inhibition of wild-type human full length TESK1 (R37 to S626 residues) expressed in bacterial expression system assessed as residual activity at 50 nM by Kinomescan method relative to control

Structure (SMILES) | pIC50 [1] | pIC50 [2] | Activity [3] | Activity [4] | Activity [5] | Activity [6] | Activity [7] | Activity [8] | Activity [9] | Activity [10] | Activity [11] | Activity [12] | Activity [13] | Activity [14] | Activity [15] | Activity [16] | Activity [17]
COc1ccc(-c2cc3c(N[C@@H]4CC[C@](C)(N)C4(C)C)c(C(N)=O)cnn3c2)cn1 | 9.05 | 7.82 | 36% | 94% | 100% | 94% | 92% | 100% | 94% | 87% | 100% | 91% | 100% | 100% | 98% | 100% | 84%
CC1(C)[C@H](Nc2c(C(N)=O)cnn3cc(-c4ccccc4)cc23)CC[C@]1(C)N | 9.05 | 8.05 | 5.3% | 18% | 64% | 64% | 78% | 89% | 89% | 92% | 92% | 99% | 100% | 100% | 100% | 100% | 100%
